Values of other authors, collected in publication PMC8232766, “Chemical Composition and Immunomodulatory Activity of Essential Oils from Rhododendron albiflorum” (Molecules, 2021).

Legend:
human neutrophils [1] = conditions: cited from earlier work; for Inhibition of agonist-induced neutrophil Ca2+ mobilization: previous studies; for Inhibition of agonist-induced Ca2+ mobilization in human neutrophils: found previously
human neutrophils [2] = system: human neutrophils; design: method as in PMID 27586050, PMID 25959257; conditions: direct effect; previous studies; cited from earlier work

SMILES | Inhibition of agonist-induced neutrophil Ca2+ mobilization (human neutrophils [1]) | Activation of neutrophil Ca2+ mobilization (human neutrophils [2]) | Inhibition of agonist-induced Ca2+ mobilization in human neutrophils (human neutrophils [1])
C=C1CCC2(C(C)C)CC12 (centres unmarked) [sabinene] | no inhibitory effect | no activating effects | 
CC1=CCC2CC1C2(C)C (stereo not drawn) [α-pinene] | no inhibitory effect | no activating effects | 
C=CC(C)(O)CCC=C(C)C (centres unmarked) [linalool] | no inhibitory effect | no activating effects | 
C=C1CCC2CC1C2(C)C (stereo not drawn) [β-pinene] | no inhibitory effect | no activating effects | 
CC1=CCC(=C(C)C)CC1 [terpinolene] | no inhibitory effect | no activating effects | 
Cc1ccc(C(C)C)cc1 [p-cymene] | no inhibitory effect | no activating effects | 
CC1=CC=C(C(C)C)CC1 [α-terpinene] | no inhibitory effect | no activating effects | 
C=CC(=C)CCC=C(C)C [myrcene] | no inhibitory effect | no activating effects | 
CC1=CCC(C(C)C)=CC1 [γ-terpinene] | no inhibitory effect | no activating effects | 
CC1=CCC(O)(C(C)C)CC1 (centres unmarked) [terpinen-4-ol] | no inhibitory effect | no activating effects | 
C=C1/C=C/[C@H](C(C)C)CC/C(C)=C/CC1 [germacrene D] |  |  | inhibited
C=C1C2CCC(C2)C1(C)C (centres unmarked) [camphene] | no inhibitory effect |  | 
C/C1=C\CC/C(C)=C/CC(C)(C)/C=C/C1 [α-humulene] |  |  | inhibited
C=C(C)[C@H]1CC=C(C)CC1 [limonene] | no inhibitory effect | no activating effects | 
C=C1CC/C=C(\C)CC[C@@H]2[C@@H]1CC2(C)C [β-caryophyllene] |  |  | inhibited
